Read-outs that look alike come from different tables or passages of the source.
Experiments:
[1] = test system: RPS19-insufficient Lin-Kit+ progenitors from mouse embryonic (E14.5–E15.5) fetal livers; assay: c-Kit+ erythroid expansion rescue in murine RPS19-insufficient progenitors (Cell titer-Glo); type: cell-based; settings: for rescue of c-Kit+ erythroid expansion: 10 µM, murine RPS19-insufficient model, Fig. 1b; for EC50: Mus musculus, read-out: EC50 of improved erythroid growth
Procedure: (§1) Cells were plated at 2000 cell per well in 96-well plates in the presence or absence of doxycycline. Relative amounts of live cells were quantified by luciferase-based Cell titer-Glo® assay. b TGFβR1 inhibitors were assessed for their ability to increase cell expansion in RPS19-insuffiency. As a control, vehicle alone (no doxycycline) is represented at the far left while all other samples were treated with doxycycline to induce RPS19-insufficiency. c Kit^+ erythroid progenitors were grown in the absence of doxycycline and in the presence of 10 µM of indicated compound. In addition, cells were treated with 5 ng/ml of TGFβ1 for 5 days before being subjected to Cell titer-Glo® assay. d Differentiating cord blood CD34^+ progenitors were transduced with shRNA against luciferase or RPS19 and treated with inhibitors at working concentrations for TGFβ inhibition every three days. […] Cells were counted and CD235^+ erythroid (i and iii) and CD11b^+ myeloid cell (ii and iv) percentages were determined by flow cytometry. The number of erythroid or myeloid cells is expressed as a percentage of the number of that lineage with no cytokine or drug treatment. Bars represent means ± SD with individual data points overlaid. n = 3 independent experiments performed in triplicate. Statistics: two-tailed Student’s t test, significant *p < 0.05. Also see Supplementary Fig. 1. Erythroid expansion is depicted in red while myeloid is in purple. Source data are provided as a Source Data file.
(1 picture or pasted object on this page, not shown here)

[2] = test system: RPS19-insufficient cord blood CD34+ HSPCs; assay: In vitro differentiation of cord blood CD34+ HSPCs transduced with shRNA against RPS19 (cell count and flow cytometry); for erythroid expansion in RPS19-insufficiency, % of control: untreated 8.7%; type: cell-based, human; settings: for increase of erythropoiesis in RPS19-insufficiency compared with control treated cells: CD235+ erythroid cells after 15 days, inhibitors at working concentrations for TGFβ inhibition every three days, Fig. 1d
Procedure: as §1
(§2) Cells were counted and assessed for cell surface expression of CD235. b Lin-Kit^+ hematopoietic progenitors were obtained from three mouse embryos expressing tetracycline-inducible shRNA against RPS19 at day E14.5 or three untreated mice, and thee mature RPL11^+/+ or three mature RPL11^+/lox mice treated with tamoxifen for eight weeks. […] Values were expressed as a percentage relative to untreated controls. c, d Intracellular phosphorylation of NLK at Thr298 was determined by capillary electrophoresis using the Peggy Sue™ Automated Western blotting platform. After lysis, 4 µg of protein from the CD235^+ population was probed against pThr298-NLK and normalized to GAPDH. […] After counting the total cell population, the ratio of CD235^+ erythroblasts was determined by flow cytometry and number of CD235^+ erythroblasts calculated. This was expressed as a percentage of the average number of erythroid cells present in untreated healthy controls. f NLK phosphorylation was assessed by capillary electrophoresis as above. Bars represent means ± SD with individual data points overlaid. […] Statistics: two-tailed Student’s t test, significant *p < 0.05. Also see Supplementary Fig. 8. Source data are provided as a Source Data file.
Primary human CD34^+ hematopoietic stem and progenitor cells were purified from cord or peripheral blood (New York Blood Center) or from human fetal liver tissue (Advanced Bioscience Resources and University of California, Los Angeles Center for AIDS Research) by using magnetic-activated cell sorting (Miltenyi Biotec) and were cryopreserved. Upon thawing, cells were cultured in x-Vivo15 media (Lonza) containing 10% fetal bovine serum, fms-related tyrosine kinase 3 (50 ng/ml), […] (50 ng/ml), interleukin-3 (IL-3; 20 ng/ml), interleukin-6 (IL-6; 20 ng/ml), and stem cell factor (50 ng/ml). When applied, TGFβ1 was added at 5 ng/ml. Kp53A1 cells were obtained from Javier Leon and cultured in DMEM supplemented with 10% fetal bovine serum at 37 or 32 °C.

DBA patient HSPCs = assay: Erythroid differentiation (CD235+) of CD34+ HSPCs from DBA patient bone marrow; type: cell-based, human; settings: 5 µM SD208; three DBA patients
Procedure: as §2, with “file. […]” for “file.”

p38 = target: T1, p38 (Homo sapiens, UniProt Q16539); assay: p38 in vitro kinase assay; type: biochemical; settings: Supplementary Fig. 4b; read-out: observed IC50 against p38
T1 construct: endogenous in cells; host or cells: Kp53A1 cells stimulated with IL-3, IL-6, SCF and Epo; immunoprecipitated with a p38 antibody
Procedure: Equivalent protein was loaded between samples. b—blue Transduced progenitors were differentiated for 15 days and sorted for surface expression of CD235 + , CD41 + and CD11b + population NLK mRNA was assessed by qRT-PCR. c Control and shRPS19-transduced CB progenitors were differentiated for 10 days prior to separation into CD71^+ and CD71^- populations and assessed for pThr298-NLK phosphorylation by Western blot analysis. d—purple CB CD34 + progenitors were transduced with shRNA against luciferase (shLuc) or RPS19 (shRPS19) along with CFP-NLK and YFP-NLK and differentiated for 10 days. NLK dimerization was quantified by FRET. e—left panel NLK was immunoprecipitated from transduced differentiating CD71^+ and CD71^- populations after 10 days, and incubated in the presence of ATP, Mg^2+ and dephosphorylated NLK (i orange), c-Myb (ii—blue) and Raptor (iii—green) for 30 min at 37 °C. Phosphorylation was detected by a combination of anti^-phosphoserine-HRP and anti-phosphothreonine-HRP antibodies, or mouse anti-phosphoserine and anti-mouse-HRP antibodies. e—right panel For comparison, NLK in vitro kinase activity was assessed from CD235^+, CD41^+ and CD11b^+ populations enriched after identical treatments. f A panel of eight small molecule p38 inhibitors were titrated into in vitro kinase assays in the presence of activated NLK or p38 from stimulated Kp53A1 cells. […]

T1 sequence (Q16539 2-360 limits assumed): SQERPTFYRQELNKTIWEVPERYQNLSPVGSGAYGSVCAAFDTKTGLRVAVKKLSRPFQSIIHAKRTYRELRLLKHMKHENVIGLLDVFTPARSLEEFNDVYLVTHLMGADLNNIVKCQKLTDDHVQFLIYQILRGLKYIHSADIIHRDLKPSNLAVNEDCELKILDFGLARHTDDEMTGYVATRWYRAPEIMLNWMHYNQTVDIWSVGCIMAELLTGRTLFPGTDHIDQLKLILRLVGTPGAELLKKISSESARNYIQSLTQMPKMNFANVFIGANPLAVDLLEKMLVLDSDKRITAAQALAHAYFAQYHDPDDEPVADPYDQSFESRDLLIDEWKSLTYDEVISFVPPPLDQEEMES

SMILES	rescue of c-Kit+ erythroid expansion [1]	EC50 ([1]; murine RPS19-insufficient cells, Supplementary Fig. 1a)	increase of erythropoiesis in RPS19-insufficiency compared with control treated cells [2]	EC50 [1]	mean increase of CD235+ erythroblast differentiation with SD208 (DBA patient HSPCs)	IC50 (p38)	erythroid expansion (CD235) in RPS19-insufficient HSPCs ([2]; 12 days, recommended concentrations, rebuttal Experiment 12)	improvement of erythropoiesis (comparison of SD208 with p38 inhibitors) ([2]; CD235+, 12 days, recommended concentrations, Supplementary Fig. 2b)	activity at 5 µM ([2]; Homo sapiens, 360 h, read-out: erythroid expansion in RPS19-insufficiency, % of control)	erythroid expansion, % of vehicle treated control cells ([2]; RPS19-insufficient cells, 5 µM, with or without TGFβ, Fig. 1e.iii)	RPS19-insufficient CD235+ erythroblast expansion, % of ribosome-competent controls ([2]; SD208 alone every three days, 15 days, untreated […], Fig. 2d.i)	RPS19-insufficient CD235+ erythroblast expansion, % of ribosome-competent controls, combined with siRNA against NLK ([2]; SD208 plus siNLK, 15 days, untreated […], Fig. 2d.i)	effect on differentiation of non-erythroid hematopoietic lineages ([2]; control or ribosome-insufficient cells)
NC(=O)c1ccc(-c2nc(-c3ccc4c(c3)OCO4)c(-c3ccccn3)[nH]2)cc1 [SB431542]	significantly rescued	5000 nM	3.2 fold										
Fc1ccc(Cl)cc1-c1nc(Nc2ccncc2)c2nccnc2n1 [SD208]	significantly rescued		6.3 fold	700 nM	2.11 fold	910 nM	significantly increased	improved erythropoiesis	38.7%	428.6%	40.3%	43.6%	did not impact

— PMC7334220, “Diamond Blackfan anemia is mediated by hyperactive Nemo-like kinase” (Nature Communications, 2020)
